Measurements published in patent US11480559B2, “Blood collection tube, reagent, and method for analyzing blood characteristics using same” (FUJIMORI KOGYO CO., LTD., priority 2016, dated 2022).

Experiments:
Assay type in all cases: cell-based
[1] = test system: blood coagulation; assay: ROTEM measurement of blood collected in BD sodium citrate tube with added reagents; details: for blood coagulation (ROTEM): CTI 50 μg/mL, aprotinin 20 μg/mL
Protocol: (§1) To a blood sample collected in a sodium citrate blood collection tube manufactured by BD (containing 3.2% sodium citrate in an amount of 1/10 volume with respect to the blood), the following reagents were added to perform ROTEM measurement.
(2) Calcium chloride (final concentration, 12 mM) and CTI (final concentration, 50 μg/mL)
(3) Calcium chloride (final concentration, 12 mM), CTI (final concentration, 50 μg/mL), and aprotinin (final concentration, 20 μg/mL)
(4) Calcium chloride (final concentration, 12 mM), CTI (final concentration, 50 μg/mL), aprotinin (final concentration, 20 μg/mL), and danaparoid sodium (final concentration, 0.25 U/mL)
The results for (1), (2), (3), and (4) are shown from the left in this order (in the order of initiation of coagulation).
(1) STARTEM reagent (calcium chloride reagent)
(4) Calcium chloride (final concentration, 12 mM), CTI (final concentration, 50 μg/mL), aprotinin (final concentration, 20 μg/mL), and heparin sodium (Mochida Pharmaceutical Co., Ltd.; final concentration, 0.15 U/mL)

[2] = test system: blood coagulation; assay: ROTEM measurement, BD sodium citrate tube, calcium chloride, CTI, aprotinin, heparin sodium and prothrombin reagent (tissue factor); details: (1) no hemostatic agent; (2) NovoSeven 2 μg/mL; (3) TFPI 10 μg/mL; HemosIL RecombiPlasTin 0.04%
Protocol: as §1
(1) Calcium chloride (final concentration, 12 mM), CTI (final concentration, 50 μg/mL), aprotinin (final concentration, 20 μg/mL), heparin sodium (final concentration, 0.15 U/mL), and a prothrombin reagent (addition of HemosIL RecombiPlasTin (15 μg/mL) to a final concentration of about 0.04%)
(2) Calcium chloride (final concentration, 12 mM), CTI (final concentration, 50 μg/mL), aprotinin (final concentration, 20 μg/mL), heparin sodium (final concentration, 0.15 U/mL), NovoSeven (final concentration, 2 μg/mL), and a prothrombin reagent (addition of HemosIL RecombiPlasTin to a final concentration of 0.04%) […]

[3] = test system: blood coagulation; assay: ROTEM measurement with STARTEM and EXTEM reagents (Comparative Example); details: (1) alone, (2) NovoSeven 2 μg/mL, (3) TFPI 10 μg/mL
Protocol: as §1
(1) STARTEM reagent and EXTEM reagent (trademark; a test reagent containing tissue factor as a major component)
(2) STARTEM reagent, EXTEM reagent, and NovoSeven (Novo Nordisk Pharma Ltd.; final concentration, 2 μg/mL)
(3) STARTEM reagent, EXTEM reagent, and TFPI (final concentration, 10 μg/mL)

[4] = test system: mixed white thrombus formation; assay: Thrombogenic capacity (white thrombus formation) in microchip coated with collagen and tissue factor, device of FIG. 2; details: tube A; aprotinin 10 μg/mL added before blood collection; calcium chloride 12 mM and CTI 50 μg/mL; flow rate 10 μL/min
Protocol: A method for analyzing the mixed white thrombus formation capacity using a microchip B for analysis of a mixed white thrombus is described below with reference to FIG. 2. The example illustrated in FIG. 2 is a mode in which a blood coagulation inhibitor is added to blood that has passed through a channel. However, this is merely an example, and the microchip may be, of course, in a different mode.
A reservoir (blood storage container) 206 is connected in an inverted position to an inlet 204 of the microchip B, and a liquid transfer pump 207 is connected to the reservoir 206. To the liquid transfer pump 207, a pressure sensor 208 is connected.
As the liquid for a liquid transfer pump 207, a liquid having a specific gravity lower than that of blood, such as mineral oil or […] is used. This liquid is introduced using the liquid transfer pump 207 into a reservoir 206 in which blood is preliminarily filled, thereby overlaying the liquid on the blood. […] By measuring the inflow pressure of the liquid, the inflow pressure of the blood into the channel can be indirectly measured.
More specifically, mineral oil is injected from the liquid transfer pump 207 into the reservoir 206. […] By providing the narrow section, high-shear-stress-induced platelet aggregation can be monitored, and thrombus formation in atherothrombosis can be reproduced, which is preferred. […]

[5] = test system: platelet thrombus formation; assay: Flow measurement of platelet thrombus formation in collagen-coated microchip, device of FIG. 1; details: blood collected in BD heparin blood collection tube, directly measured; 18 μL/min
From the text: First, a method for analyzing the platelet thrombus formation capacity using a microchip A for analysis of a platelet thrombus is described below with reference to FIG. 1. In the example illustrated in FIG. 1, two channels are provided in parallel. However, this is merely an example, and, of course, the microchip may have a single channel, or may be in a different mode.
Reservoirs (blood storage containers) 106 and 116 are connected in an inverted position to a first inlet 104 and a second inlet 114, respectively, of the microchip A, and liquid transfer pumps 107, and 117 are connected to the reservoirs 106 and 116. To the liquid transfer pumps 107 and 117, pressure sensors 108 and 118 are connected. […]
As the liquid for the liquid transfer pumps 107 and 117, a liquid having a specific gravity lower than that of blood, such as mineral oil or […] is used. […] By measuring the inflow pressure of the liquid, the inflow pressure of the blood into each channel can be indirectly measured. […]
Thrombus formation by platelets occurs when the blood passes through the reaction sections, and increases in the inflow pressure due to this thrombus formation can be observed. By detecting the patterns of these pressure increases using the pressure sensors, and comparing the detected patterns, blood properties, that is, the platelet thrombus formation capacity, can be evaluated. […]

**Q.** Which “blood coagulation (ROTEM)” value ([1]; heparin sodium 0.15 U/mL further added to calcium chloride 12 mM) does the source give for heparin sodium here?
**A.** Its value is “complete suppression of blood coagulation”.

**Q.** Ac-FQSKpNVHVDGYFERLXAKL-NH2 [TFPI] was tested. Which “order of coagulation (ROTEM)” value [2] did it give?
**A.** The value was “Coagulation occurred in the order of (2), (3), and (1)”.

**Q.** And the “ROTEM waveform versus reagent alone” value [3]?
**A.** The value was “showed the same waveform”.

**Q.** With danaparoid sodium as the substance, how does the “blood coagulation (ROTEM)” value ([1]; danaparoid sodium 0.25 U/mL further added to calcium chloride 12 mM) read?
**A.** The value was “complete suppression of blood coagulation”.

**Q.** aprotinin was tested. Which “thrombogenic capacity in the presence of blood flow” value [4] did it give?
**A.** Its value is “did not influence the data”.

**Q.** And the “initiation of coagulation (ROTEM)” value ([1]; aprotinin 20 μg/mL together with calcium chloride 12 mM and CTI 50 μg/mL)?
**A.** Its value is “suppressed initiation of blood coagulation”.

**Q.** Which “pressure increase due to platelet thrombus formation” value [5] does the source give for heparin here?
**A.** Its value is “hardly observed”.
